According to US7070965B1, “Small molecule anticancer compounds and related production process” (priority 1998, dated 2006):

Assay: Determination of LD50
Assay type: in vivo
Description: 13-methyltetradecanoic acid (iso-C15) purchased from Sigma (St. Louis, Mo.) was prepared by dissolving in NaOH solution and then in 0.35% Tween 80 with pH7.5.
ICR mice weighing 20.5–22.5 g of both sexes were treated with iso-C15 i.p. qd×3 in test groups and with solvent of same dose as in a control group. The doses ranged from 10 to 800 mg/kg of iso-C15 and two mice were included in each dose group (10 mg/kg, 20 mg/kg, 40 mg/kg, 80 mg/kg, 160 mg/kg, and 800 mg/kg). The general condition of these mice were monitored daily for seven days.

With `CC(C)CCCCCCCCCCCC(=O)O` [iso-C15, 13-methyltetradecanoic acid] as the compound, how does the LD50 at 7 days (both sexes, ICR, mouse, in vivo, ip) read?
The LD50 at 7 days was over 800 mg/kg.

What about the mortality (i.p. qd×3, dose up to 800 mg/kg, monitored seven days) of the same compound?
Its mortality is “No mice died”.
